From article PMC9203742 (Nature Communications, 2022)
Where “and” joins values, the source holds several entries; their conditions need not be identical. Equal values may be shown once. Starred links: 1 amine or outer side, 2 acyl side, 3 side chain; linkers in the order of their positions; H or OH if unused. Positions of bridges follow the written chain, without caps; N, C: chain ends. Non-standard residues stand in square brackets, D forms with d. Residues, ends and D or L forms follow the SMILES beside them. X1 = CC(=O)NC(C(=O)OC(C(C)C)C(N[*:1])C(=O)[*:2])C(O)C(C)C; PhLac = O=C(O)[CH](O)Cc1ccccc1; NMeT = CN[CH](C(=O)O)[CH](C)O; NMeA = CN[CH](C)C(=O)O; NMeDha = C=C(NC)C(=O)O

Legend:
mGlu1(N264H) mutant = biological target: T1, mGlu1(N264H) mutant (Rattus norvegicus, UniProt P23385, N264H); test: Fura-2 Ca2+ imaging in HEK293 cells expressing mGlu1(N264H); format: cell-based; conditions: for Effect of pre-treated inhibitor on 10 µM Pd(bpy)-induced Ca2+ responses: 10 µM LY367385, 1 µM FITM, 10 µM YM254890 or 1 µM U73122; for Receptor activation (Ca2+ response, Δratio): 3 μM Pd(bpy) derivative; for Ca2+ response to Pd complex, individual cells #1-#20 (Fig.4e): single-cell values
T1 construct: expressed in transfected cells; host or cells: HEK293

mGlu1 P58H/N264H mutant = biological target: T2, mGlu1 P58H/N264H mutant (Rattus norvegicus, UniProt P23385, N264H/P58H); test: Fura-2 Ca2+ imaging in HEK293 cells expressing mGlu1 P58H/N264H; format: cell-based; conditions: for Δratio of 3 µM Pd(bpy)-induced response, ave / Δratio of 10 µM glutamate-induced response, ave: n = 20; for Receptor activation ([Ca2+]i change, Δratio): 10 μM metal ion or metal complex
T2 construct: expressed in transfected cells; host or cells: HEK293

primary cortical neurons = test: Fura-2 Ca2+ imaging (abnormal Ca2+ response) in cultured cortical neurons; conditions: co-treated 30 µM LY367385, 1 µM FITM or 10 µM U73122
mGlu1 K61H/N264H mutant = biological target: T3, mGlu1 K61H/N264H mutant (Rattus norvegicus, UniProt P23385, K61H/N264H); test: Fura-2 Ca2+ imaging in HEK293 cells expressing mGlu1 K61H/N264H; format: cell-based; conditions: 10 μM metal ion or metal complex
T3 construct: expressed in transfected cells; host or cells: HEK293

mGlu1 P57H/N264H mutant = biological target: T4, mGlu1 P57H/N264H mutant (Rattus norvegicus, UniProt P23385, N264H/P57H); test: Fura-2 Ca2+ imaging in HEK293 cells expressing mGlu1 P57H/N264H; format: cell-based; conditions: 10 μM metal ion or metal complex
T4 construct: expressed in transfected cells; host or cells: HEK293

mGlu1 E60H/N264H mutant = biological target: T5, mGlu1 E60H/N264H mutant (Rattus norvegicus, UniProt P23385, E60H/N264H); test: Fura-2 Ca2+ imaging in HEK293 cells expressing mGlu1 E60H/N264H; format: cell-based; conditions: 10 μM metal ion or metal complex
T5 construct: expressed in transfected cells; host or cells: HEK293

mGlu1 A59H/N264H mutant = biological target: T6, mGlu1 A59H/N264H mutant (Rattus norvegicus, UniProt P23385, A59H/N264H); test: Fura-2 Ca2+ imaging in HEK293 cells expressing mGlu1 A59H/N264H; format: cell-based; conditions: 10 μM metal ion or metal complex
T6 construct: expressed in transfected cells; host or cells: HEK293
T6 sequence (P23385 19-1199 A59H/N264H): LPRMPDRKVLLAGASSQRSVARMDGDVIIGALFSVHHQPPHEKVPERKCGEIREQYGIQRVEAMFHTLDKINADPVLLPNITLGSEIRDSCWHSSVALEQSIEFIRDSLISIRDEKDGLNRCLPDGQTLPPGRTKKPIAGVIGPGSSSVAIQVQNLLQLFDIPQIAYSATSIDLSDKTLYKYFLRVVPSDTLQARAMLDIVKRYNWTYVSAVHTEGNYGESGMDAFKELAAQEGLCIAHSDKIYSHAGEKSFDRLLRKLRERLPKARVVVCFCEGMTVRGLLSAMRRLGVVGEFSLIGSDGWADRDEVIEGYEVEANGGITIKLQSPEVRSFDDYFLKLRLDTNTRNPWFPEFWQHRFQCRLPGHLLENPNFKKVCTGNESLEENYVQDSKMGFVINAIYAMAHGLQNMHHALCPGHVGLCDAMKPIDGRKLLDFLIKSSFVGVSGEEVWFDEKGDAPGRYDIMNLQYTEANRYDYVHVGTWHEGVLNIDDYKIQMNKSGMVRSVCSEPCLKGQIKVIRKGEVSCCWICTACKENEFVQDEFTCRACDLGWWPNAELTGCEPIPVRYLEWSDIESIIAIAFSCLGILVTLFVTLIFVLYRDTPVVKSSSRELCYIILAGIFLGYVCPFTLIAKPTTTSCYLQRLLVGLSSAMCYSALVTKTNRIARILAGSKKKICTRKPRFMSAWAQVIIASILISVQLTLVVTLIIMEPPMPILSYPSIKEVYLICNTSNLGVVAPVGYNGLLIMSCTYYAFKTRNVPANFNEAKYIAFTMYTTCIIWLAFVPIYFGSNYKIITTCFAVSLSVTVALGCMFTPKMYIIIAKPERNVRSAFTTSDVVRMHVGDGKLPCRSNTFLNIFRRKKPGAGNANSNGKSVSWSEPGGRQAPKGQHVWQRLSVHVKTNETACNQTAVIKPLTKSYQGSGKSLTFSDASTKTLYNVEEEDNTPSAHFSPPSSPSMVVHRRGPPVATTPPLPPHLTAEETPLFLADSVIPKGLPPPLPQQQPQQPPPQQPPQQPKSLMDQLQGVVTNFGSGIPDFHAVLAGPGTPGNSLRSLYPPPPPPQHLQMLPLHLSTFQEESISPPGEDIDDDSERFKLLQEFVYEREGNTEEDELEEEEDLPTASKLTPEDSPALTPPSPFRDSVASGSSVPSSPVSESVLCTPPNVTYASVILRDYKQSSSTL

T2 sequence (P23385 19-1199 P58H/N264H): as the sequence (P23385 19-1199 A59H/N264H) above, with P40H, H41A counted along it
T1 sequence (P23385 19-1199 N264H): as the sequence (P23385 19-1199 A59H/N264H) above, with H41A counted along it
T4 sequence (P23385 19-1199 P57H/N264H): as the sequence (P23385 19-1199 A59H/N264H) above, with P39H, H41A counted along it
T3 sequence (P23385 19-1199 K61H/N264H): as the sequence (P23385 19-1199 A59H/N264H) above, with H41A, K43H counted along it
T5 sequence (P23385 19-1199 E60H/N264H): as the sequence (P23385 19-1199 A59H/N264H) above, with H41A, E42H counted along it

Compound | Effect of pre-treated inhibitor on 10 µM Pd(bpy)-induced Ca2+ responses (mGlu1(N264H) mutant) | Receptor activation (Ca2+ response, Δratio) (mGlu1(N264H) mutant) | Ca2+ response to Pd complex, individual cells #1-#20 (Fig.4e) (mGlu1(N264H) mutant) | Receptor activation ([Ca2+]i change, Δratio) (mGlu1 K61H/N264H mutant) | Receptor activation ([Ca2+]i change, Δratio) (mGlu1 P57H/N264H mutant) | Receptor activation ([Ca2+]i change, Δratio) (mGlu1 E60H/N264H mutant) | Receptor activation ([Ca2+]i change, Δratio) (mGlu1 A59H/N264H mutant) | Receptor activation ([Ca2+]i change, Δratio) (mGlu1 P58H/N264H mutant) | other results
Cc1cc(C(=O)O)ccc1[C@H](N)C(=O)O [LY367385, reference compound] | inhibited |  |  |  |  |  |  |  | Effect on Pd(bpy)-induced Ca2+ responses (mGlu1 P58H/N264H mutant; 10 μM LY367385, 3 µM Pd(bpy)): inhibited; Δratio of 3 µM Pd(bpy)-induced response, ave (mGlu1 P58H/N264H mutant; [LY367385] 0.1 µM): 0.1859; Δratio of 10 µM glutamate-induced response, ave (mGlu1 P58H/N264H mutant; [LY367385] 0.1 µM): 0.243; Δratio of 3 µM Pd(bpy)-induced response, ave (mGlu1 P58H/N264H mutant; [LY367385] 0.3 µM): 0.1915; Δratio of 10 µM glutamate-induced response, ave (mGlu1 P58H/N264H mutant; [LY367385] 0.3 µM): 0.2897; Δratio of 3 µM Pd(bpy)-induced response, ave (mGlu1 P58H/N264H mutant; [LY367385] 1 µM): 0.262; Δratio of 10 µM glutamate-induced response, ave (mGlu1 P58H/N264H mutant; [LY367385] 1 µM): 0.3662; Δratio of 3 µM Pd(bpy)-induced response, ave (mGlu1 P58H/N264H mutant; [LY367385] 3 µM): 0.1837; Δratio of 10 µM glutamate-induced response, ave (mGlu1 P58H/N264H mutant; [LY367385] 3 µM): 0.2021; Δratio of 3 µM Pd(bpy)-induced response, ave (mGlu1 P58H/N264H mutant; [LY367385] 10 µM): 0.007225; Δratio of 10 µM glutamate-induced response, ave (mGlu1 P58H/N264H mutant; [LY367385] 10 µM): 0.09778; Δratio of 3 µM Pd(bpy)-induced response, ave (mGlu1 P58H/N264H mutant; [LY367385] 30 µM): 0.008008; Δratio of 10 µM glutamate-induced response, ave (mGlu1 P58H/N264H mutant; [LY367385] 30 µM): 0.0409; Δratio of 3 µM Pd(bpy)-induced response, ave (mGlu1 P58H/N264H mutant; [LY367385] 100 µM): 0.01163; Δratio of 10 µM glutamate-induced response, ave (mGlu1 P58H/N264H mutant; [LY367385] 100 µM): 0.05699; Effect on glutamate-induced Ca2+ responses (mGlu1 P58H/N264H mutant; pretreatment with LY367385, 10 µM glutamate): suppressed; Effect of inhibitor on 30 µM Pd(bpy)-induced [Ca2+]i elevation (primary cortical neurons): suppressed by neither
OCc1ccnc(-c2cc(CO)ccn2)c1.[Cl][Pd][Cl] [Pd(OH-bpy)] |  | successfully activated | 0.09363 and -0.01751 and 0.927 and 0.3494 and 0.8377 and 0.7197 and 0.003631 and 0.04434 and -0.01218 and -0.01678 and 1.414 and 0.5875 and -0.01008 and 0.646 and 0.8168 and 0.6391 and 0.4133 and 1.082 and 0.03592 and 1.1834 |  |  |  |  |  | Ca2+ response, concentration dependence (Fig.4f) (mGlu1(N264H) mutant; 0.01 µM Pd complex): -0.02066; Ca2+ response, concentration dependence (Fig.4f) (mGlu1(N264H) mutant; 0.03 µM Pd complex): 0.003658; Ca2+ response, concentration dependence (Fig.4f) (mGlu1(N264H) mutant; 0.1 µM Pd complex): 0.0176; Ca2+ response, concentration dependence (Fig.4f) (mGlu1(N264H) mutant; 0.3 µM Pd complex): 0.1704; Ca2+ response, concentration dependence (Fig.4f) (mGlu1(N264H) mutant; 1 µM Pd complex): 0.2068; Ca2+ response, concentration dependence (Fig.4f) (mGlu1(N264H) mutant; 3 µM Pd complex): 0.4989; Ca2+ response, concentration dependence (Fig.4f) (mGlu1(N264H) mutant; 10 µM Pd complex): 0.5148; Ca2+ response, concentration dependence (Fig.4f) (mGlu1(N264H) mutant; 30 µM Pd complex): 0.5694; EC50 (mGlu1(N264H) mutant; HEK293 cells, Fura-2, read-out: EC50, Ca2+ response (Δratio)): 1100 nM
C=C1C(=O)NC(C)C(=O)N(C)C(C)C(=O)NC(C(OC(=O)C(NC(C)=O)C(O)C(C)C)C(C)C)C(=O)N(C)C(C(C)OC)C(=O)OC(C)C(NC(C)=O)C(=O)OC(Cc2ccccc2)C(=O)N1C (centres unmarked) [YM-254890, reference compound] (Ac-T[PhLac][NMeDha]A[NMeA][X1][NMeT](Me); ester 1-C; configuration not given here) | suppressed |  |  |  |  |  |  |  | 
[Cd+2] [Cd^2+, reference compound] |  |  |  | failed to activate | failed to activate | failed to activate | failed to activate | failed to activate | 
[Zn+2] [Zn^2+, reference compound] |  |  |  | failed to activate | failed to activate | failed to activate | failed to activate | failed to activate | 
[Cu+2] [Cu^2+, reference compound] |  |  |  | failed to activate | failed to activate | failed to activate | failed to activate | failed to activate | 
OCCOCCOCc1ccnc(-c2cc(COCCOCCO)ccn2)c1.[Cl][Pd][Cl] [Pd(EG-bpy)] |  | weakened responses | -0.02498 and -0.009 and -0.01094 and -0.001385 and -0.02155 and -0.01075 and -0.019 and 0.05131 and 0.02474 and 0.01748 and 0.01646 and -0.03188 and 0.7968 and -0.03567 and 0.2621 |  |  |  |  |  | 
COc1ccc2c(c1)CC[C@@H]1[C@@H]2CC[C@]2(C)[C@@H](NCCCCCCN3C(=O)C=CC3=O)CC[C@@H]12 [U73122, reference compound] | suppressed |  |  |  |  |  |  |  | Effect of inhibitor on 30 µM Pd(bpy)-induced [Ca2+]i elevation (primary cortical neurons): suppressed by neither
O=S(=O)([O-])CCCOCc1ccnc(-c2cc(COCCCS(=O)(=O)[O-])ccn2)c1.[Cl][Pd][Cl].[Na+].[Na+] [Pd(di-sulfo-bpy)] |  | failed to activate | 0.01072 and 0.008046 and 0.01006 and 0.04502 and 0.003731 and 0.0195 and 0.007615 and 0.1169 and -0.002485 and 0.009585 and 0.3142 and 0.02231 and 0.005731 and 0.02578 and 0.01671 |  |  |  |  |  | 
[Ni+2] [Ni^2+, reference compound] |  |  |  | failed to activate | failed to activate | failed to activate | failed to activate | failed to activate | 
